Where a SMILES comes first, the peptide text is derived from it.
Key:
E. coli ATCC 25922 = test: Killing kinetics (time kill assay); assay type: cell-based, Escherichia coli; settings: MHB, 35°C, sampled 1-24 hours, n = 2
Method: The killing kinetics assay was conducted using mid-logarithmic phase cultures of E. coli ATCC 25922 and S. aureus ATCC 29213 in MHB. Cultures were adjusted to a 0.5 McFarland standard, diluted in MHB, and then 100µL was added to each culture tube containing 10mL pre-warmed MHB to give a final inoculum concentration of 5 x 10^5 CFU/mL. A sterility control of 100uL MHB, growth control (no cathelicidin), and vehicle control (DMSO) were also included. Furthermore, 10uL was immediately removed from the growth control tube, diluted 1/1000 in saline and 100µL plated onto MHA in duplicate to confirm inoculum density. To establish colony counts from 0 hours of cathelicidin treatment, 200µL was removed from each culture tube and serially diluted ten-fold in saline from 10^0 to […] in a total volume of 200µL. Then, 10µL of each dilution was spotted onto MHA in duplicate, which were incubated at 35°C for 24 hours.
All culture tubes were then incubated at 35°C static. At 1, 2, 4, 6, 8, 10, 12, and 24 hours post-cathelicidin treatment, 200µL was removed from each culture tube for dilution and plated on MHA as described above. […] Counts of duplicates were averaged, and the log10 CFU/mL graphed against time. This was used as input for one-way ANOVA (p < 0.05) followed by Dunnett’s post hoc test.

[1] = tested on: Streptococcus pneumoniae ATCC 49619; test: microbe, parasite or virus in culture; assay type: cell-based; settings: ATCC 49619; read-out: MIC S. pneumoniae ATCC
How it was run: (§1)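 MIC defined as lowest peptide level preventing visible growth after 20–24 h at 35°C. Candida tested in RPMI-1640 MOPS; bacteria in Mueller Hinton broth, optionally with 10% lysed horse blood and/or divalent cations. Final peptide range 64-0.125 μg/mL, starting inoculum 5 x 10^5 CFU/mL, per CLSI M07-A/M26A.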

[2] = tested on: Streptococcus agalactiae Clinical isolate - animal; test: microbe, parasite or virus in culture; assay type: cell-based; settings: clinical isolate - animal; read-out: MIC S. agalactiae
How it was run: as §1

[3] = tested on: Streptococcus agalactiae ATCC 12386; test: microbe, parasite or virus in culture; assay type: cell-based; settings: ATCC 12386; read-out: MIC S. agalactiae ATCC
How it was run: as §1

[4] = tested on: Pseudomonas aeruginosa clinical isolate - animal; test: microbe, parasite or virus in culture; assay type: cell-based; settings: clinical isolate - animal; read-out: MIC P. aeruginosa
How it was run: (§2)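 Each isolate was exposed to twofold peptide dilutions (final 64-0.125μg/mL) in Mueller Hinton broth, optionally supplemented with calcium and magnesium or 10% lysed horse blood. The MIC was taken as the lowest concentration lacking visible growth after 20–24 hours at 35°C.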

[5] = tested on: Staphylococcus aureus clinical isolate - animal; test: microbe, parasite or virus in culture; assay type: cell-based; settings: clinical isolate - animal; read-out: MIC S. aureus
How it was run: as §2

[6] = tested on: Pseudomonas aeruginosa ATCC 27853; test: microbe, parasite or virus in culture; assay type: cell-based; settings: ATCC 27853; read-out: MIC P. aeruginosa ATCC
How it was run: as §2

[7] = tested on: Escherichia coli clinical isolate - animal; test: microbe, parasite or virus in culture; assay type: cell-based; settings: clinical isolate - animal
How it was run: as §2

[8] = tested on: Escherichia coli ATCC 25922; test: microbe, parasite or virus in culture; assay type: cell-based; settings: ATCC 25922
How it was run: as §2

[9] = tested on: Staphylococcus aureus ATCC 29213; test: microbe, parasite or virus in culture; assay type: cell-based; settings: ATCC 29213; read-out: MIC S. aureus ATCC
How it was run: as §2

MIC [1]: >13.2 µM | MIC [2]: >13.2 µM | MIC [3]: >13.2 µM | MIC [4]: >13.2 µM | MIC [5]: >13.2 µM | MIC [6]: >13.2 µM | MIC E. coli [7]: 6.6 (6.6)^6.6 µM | MIC in the presence of cations E. coli [7]: 6.6 (6.6)^6.6 µM | MIC E. coli ATCC [8]: 1.6 (1.6)^1.6 µM | MIC in the presence of cations E. coli ATCC [8]: 1.6 (1.6)^1.6 µM | MIC [9]: >13.2 µM
SMILES: CC[C@H](C)[C@H](NC(=O)[C@H](CC(=O)O)NC(=O)[C@H](CC(=O)O)NC(=O)CNC(=O)[C@H](CC(C)C)NC(=O)[C@H](CCCCN)NC(=O)[C@@H](NC(=O)[C@H](C)NC(=O)[C@H](CCCCN)NC(=O)[C@H](CCCNC(=N)N)NC(=O)[C@H](CCCCN)NC(=O)[C@H](CC(C)C)NC(=O)[C@H](CO)NC(=O)[C@H](CCC(=O)O)NC(=O)[C@H](Cc1c[nH]c2ccccc12)NC(=O)[C@H](CC(C)C)NC(=O)CNC(=O)[C@H](CCCNC(=N)N)NC(=O)[C@@H](N)CCCCN)[C@@H](C)O)C(=O)N[C@@H](CCCNC(=N)N)C(=O)N[C@@H](CC(N)=O)C(=O)N[C@H](C(=O)N[C@@H](CC(C)C)C(=O)N[C@@H](CCCNC(=N)N)C(=O)N[C@@H](CC(N)=O)C(=O)N[C@@H](Cc1ccccc1)C(=O)N[C@@H](CCCCN)C(=O)N[C@H](C(=O)N[C@@H](CCCCN)C(=O)N[C@H](C(=O)N1CCC[C@H]1C(=O)N[C@H](C(=O)N1CCC[C@H]1C(=O)N[C@@H](CCCNC(=N)N)C(=O)N[C@@H](CCC(N)=O)C(=O)N[C@@H](Cc1c[nH]c2ccccc12)C(=O)N1CCC[C@H]1C(=O)N[C@H](C(=O)N[C@@H](CCCNC(=N)N)C(=O)N[C@H](C(=O)O)C(C)C)[C@@H](C)CC)C(C)C)C(C)C)[C@@H](C)CC)[C@@H](C)O [MaruCath4] (H-KRGLWESLKRKATKLGDDIRNTLRNFKIKVPVPRQWPIRV-OH; N-terminus and C-terminus assumed)
Number of hours to cause a significant reduction in log CFU/mL of E. coli ATCC (p < 0.05) (E. coli ATCC 25922; 2x MIC): 4 hours | Number of hours to cause a significant reduction in log CFU/mL of E. coli ATCC (p < 0.05) (E. coli ATCC 25922; MIC): 4 hours | MBC E. coli [7]: 6.6 (6.6)^6.6 µM

From paper PMC12006171, “Marsupial cathelicidins: characterization, antimicrobial activity and evolution in this unique mammalian lineage” (Frontiers in Immunology, 2025)
